Reference: ChEMBL document CHEMBL5346863, “Discovery of substituted benzyloxy-benzylamine inhibitors of acetyltransferase Eis and their anti-mycobacterial activity” (Eur J Med Chem, 2022)
pIC50, pKi: −log10 of the molar value. In brackets after ≈: the same amount, converted by molar mass. Activity calls are given as the source filed them. The rule behind the calls is not given here.

Tests used:
[1] = test system: Mycobacterium tuberculosis; assay: Antibacterial activity against Mycobacterium tuberculosis mc2 6230 assessed as bacterial growth inhibition incubated 2 to 3 weeks by resazurin dye based assay; type: functional; conditions: time 2-3 weeks
[2] = test system: Mycobacterium tuberculosis; assay: Antibacterial activity against Mycobacterium tuberculosis mc2 6230 assessed as bacterial growth inhibition measured after 6 days by alamarblue dye based assay; type: functional; conditions: mc2 6230, 144 h, time 6 day
[3] = test system: Mycobacterium tuberculosis; assay: Antibacterial activity against Mycobacterium tuberculosis mc2 6230 K204 assessed as bacterial growth inhibition measured after 6 days by alamarblue dye based assay; type: functional; conditions: mc2 6230 K204, 144 h, time 6 day
[4] = test system: Mycobacterium tuberculosis; assay: Antibacterial activity against Mycobacterium tuberculosis H37Rv assessed as bacterial growth inhibition measured after 6 days by alamarblue dye based assay; type: functional; conditions: 144 h, time 6 day
HEK293 = assay: Cytotoxicity against HEK293 cells upto 12.5 uM incubated for 24 hrs by resazurin dye based cell viability assay; type: toxicity; conditions: human, hek293, 24 h
N-acetyltransferase Eis [5] = biological target: T1, N-acetyltransferase Eis (Mycobacterium tuberculosis (strain ATCC 25618 / H37Rv), UniProt P9WFK7); assay: Binding affinity to wild-type Mycobacterium tuberculosis Eis expressed in Escherichia coli BL21(DE3) cells assessed as inhibition constant incubated for 5 mins by Ellman's method based Michaelis-Menten analysis
T1 sequence (P9WFK7 whole entry): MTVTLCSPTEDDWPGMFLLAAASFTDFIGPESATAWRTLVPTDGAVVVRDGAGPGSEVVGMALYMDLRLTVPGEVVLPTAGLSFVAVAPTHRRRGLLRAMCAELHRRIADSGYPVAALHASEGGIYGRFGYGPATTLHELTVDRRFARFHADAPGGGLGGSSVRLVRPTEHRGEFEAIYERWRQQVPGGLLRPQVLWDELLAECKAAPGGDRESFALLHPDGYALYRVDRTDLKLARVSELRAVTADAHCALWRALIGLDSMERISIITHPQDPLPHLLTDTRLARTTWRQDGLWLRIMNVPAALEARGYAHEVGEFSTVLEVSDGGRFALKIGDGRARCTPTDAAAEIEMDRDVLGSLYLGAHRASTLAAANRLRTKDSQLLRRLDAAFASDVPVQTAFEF

[6] = test system: Mycobacterium tuberculosis; assay: Antibacterial activity against Mycobacterium tuberculosis H37Ra assessed as bacterial growth inhibition incubated 2 to 3 weeks by resazurin dye based assay; type: functional; conditions: time 2-3 weeks
[7] = test system: Mycobacterium tuberculosis; assay: Antibacterial activity against Mycobacterium tuberculosis mc2 6230 assessed as MIC of kanamycin A at 25 uM incubated for 24 hrs followed by kanamycin A addition measured after 6 days by alamarblue dye based assay; type: functional; conditions: mc2 6230, 168 h, time 7 day
Mycobacterium avium = assay: Antibacterial activity against Mycobacterium avium ATCC 25291 assessed as bacterial growth inhibition incubated for 2 to 3 weeks by resazurin dye based assay; type: functional; conditions: time 2-3 weeks
[8] = test system: Mycobacteroides abscessus; assay: Antibacterial activity against Mycobacterium abscessus ATCC 19977 assessed as bacterial growth inhibition incubated for 2 to 3 weeks by resazurin dye based assay; type: functional; conditions: time 2-3 weeks
A549 [9] = assay: Cytotoxicity against human A549 cells upto 12.5 uM incubated for 24 hrs by resazurin dye based cell viability assay; type: toxicity; conditions: a549, 24 h
A549 [10] = assay: Cytotoxicity against human A549 cells >=50 uM incubated for 24 hrs by resazurin dye based cell viability assay; type: toxicity; conditions: a549, 24 h
J774.1 = assay: Cytotoxicity against mouse J774.1 cells upto 12.5 uM incubated for 24 hrs by resazurin dye based cell viability assay; type: toxicity; conditions: j774.1, 24 h
[11] = test system: Mycolicibacterium smegmatis; assay: Antibacterial activity against Mycobacterium smegmatis mc2 122 assessed as bacterial growth inhibition incubated for 2 to 3 weeks by resazurin dye based assay; type: functional; conditions: time 2-3 weeks
[12] = test system: Mycobacterium tuberculosis; assay: Antibacterial activity against Mycobacterium tuberculosis mc2 6230 K204 assessed as MIC of kanamycin A at 25 uM incubated for 24 hrs followed by kanamycin A addition measured after 6 days by alamarblue dye based assay; type: functional; conditions: Mycobacterium tuberculosis, mc2 6230 K204, 168 h, time 7 day, read-out: MIC
N-acetyltransferase Eis [13] = biological target: T1, N-acetyltransferase Eis; assay: Inhibition of wild-type Mycobacterium tuberculosis Eis expressed in Escherichia coli BL21(DE3) cells incubated for 5 mins by Ellman's method
[14] = test system: Mycobacterium tuberculosis; assay: Antibacterial activity against Mycobacterium tuberculosis H37Rv assessed as MIC of kanamycin A at 100 uM incubated for 24 hrs followed by kanamycin A addition measured after 6 days by alamarblue dye based assay; type: functional; conditions: time 7.0 day
[15] = test system: Mycobacterium tuberculosis; assay: Antibacterial activity against Mycobacterium tuberculosis H37Rv assessed as MIC of kanamycin A at 97.9 uM incubated for 24 hrs followed by kanamycin A addition measured after 6 days by alamarblue dye based assay; type: functional, organism-based; conditions: time 7.0 day
[16] = test system: Mycobacterium tuberculosis; assay: Antibacterial activity against Mycobacterium tuberculosis K204 assessed as MIC of kanamycin A at 97.9 uM incubated for 24 hrs followed by kanamycin A addition measured after 6 days by alamarblue dye based assay; type: functional, organism-based; conditions: time 7.0 day
[17] = test system: Mycobacterium tuberculosis; assay: Antibacterial activity against Mycobacterium tuberculosis H37Rv assessed as MIC of kanamycin A at 27.5 uM incubated for 24 hrs followed by kanamycin A addition measured after 6 days by alamarblue dye based assay; type: functional; conditions: 168 h, time 7 day
[18] = test system: Mycobacterium intracellulare; assay: Antibacterial activity against Mycobacterium intracellulare ATCC 13950 assessed as bacterial growth inhibition incubated for 2 to 3 weeks by resazurin dye based assay; type: functional; conditions: time 2-3 weeks
[19] = test system: Mycobacterium tuberculosis; assay: Antibacterial activity against Mycobacterium tuberculosis mc2 6230 K204 assessed as MIC of kanamycin A at 50 uM incubated for 24 hrs followed by kanamycin A addition measured after 6 days by alamarblue dye based assay; type: functional; conditions: mc2 6230 K204, 168 h, time 7 day
[20] = test system: Mycobacterium tuberculosis; assay: Antibacterial activity against Mycobacterium tuberculosis mc2 6230 assessed as MIC of kanamycin A at 50 uM incubated for 24 hrs followed by kanamycin A addition measured after 6 days by alamarblue dye based assay; type: functional; conditions: mc2 6230, 168 h, time 7 day
[21] = test system: Mycobacterium tuberculosis; assay: Antibacterial activity against Mycobacterium tuberculosis H37Rv assessed as MIC of kanamycin A at 43.8 uM incubated for 24 hrs followed by kanamycin A addition measured after 6 days by alamarblue dye based assay; type: functional; conditions: 168 h, time 7 day
[22] = test system: Mycobacterium tuberculosis; assay: Antibacterial activity against Mycobacterium tuberculosis H37Rv assessed as MIC of kanamycin A at 6.3 uM incubated for 24 hrs followed by kanamycin A addition measured after 6 days by alamarblue dye based assay; type: functional; conditions: 168 h, time 7 day
[23] = test system: Mycobacterium tuberculosis; assay: Antibacterial activity against Mycobacterium tuberculosis H37Rv assessed as MIC of kanamycin A at 7.9 uM incubated for 24 hrs followed by kanamycin A addition measured after 6 days by alamarblue dye based assay; type: functional; conditions: 168 h, time 7 day
[24] = test system: Mycobacterium parascrofulaceum; assay: Antibacterial activity against Mycobacterium parascrofulaceum ATCC BAA-614 assessed as bacterial growth inhibition incubated for 2 to 3 weeks by resazurin dye based assay; type: functional; conditions: time 2-3 weeks

Compound	MIC [1]	MIC [6]	MIC (Mycobacterium avium)	MIC [8]	pIC50 (N-acetyltransferase Eis [13])	MIC [18]	also measured
NC[C@H]1O[C@H](O[C@H]2[C@H](O)[C@@H](O[C@H]3O[C@H](CO)[C@@H](O)[C@H](N)[C@H]3O)[C@H](N)C[C@@H]2N)[C@H](O)[C@@H](O)[C@@H]1O [KANAMYCIN]	< 1.25 µM	–	–	–	–	–	MIC [2]: < 1.25 µM; MIC [3]: 320 µM (≈ 155 µg/mL); MIC [4]: 1.25 µg/mL (≈ 2.58 µM)
Clc1ccc(COc2ccccc2CNCc2cccnc2)cc1	50 µM (≈ 16.9 µg/mL)	62.5 µM (≈ 21.2 µg/mL)	> 62.5 µM	> 62.5 µM	5.70	–	Activity (HEK293): Non-Toxic; pKi (N-acetyltransferase Eis [5]): 5.94; MIC [7]: < 1.25 µM; Activity (A549 [9]): Non-Toxic; Activity (A549 [10]): Toxic; Activity (J774.1): Non-Toxic; MIC [11]: 62.5 µM (≈ 21.2 µg/mL); MIC [12]: > 10 µM; Activity [14]: Active; Activity [15]: Active; Activity [16]: Active
Clc1ccc(COc2ccc(CNCc3cccnc3)cc2)cc1	50 µM (≈ 16.9 µg/mL)	31.3 µM (≈ 10.6 µg/mL)	> 62.5 µM	> 62.5 µM	5.54	15.6 µM (≈ 5.29 µg/mL)	MIC [7]: < 1.25 µM; MIC [17]: ≤ 1.25 µg/mL; MIC [12]: ≤ 1.25 µM
Brc1ccc(COc2ccccc2CNCc2ccccc2)cc1	100 µM (≈ 38.2 µg/mL)	31.3 µM (≈ 12 µg/mL)	> 62.5 µM	–	5.89	31.3 µM (≈ 12 µg/mL)	pKi (N-acetyltransferase Eis [5]): 5.28; MIC [19]: > 10 µM; Activity [14]: Active; MIC [20]: < 1.25 µM
Fc1ccc(COc2ccccc2CNCc2ccncc2)cc1	50 µM (≈ 16.1 µg/mL)	> 250 µM	–	–	~4.00	–	MIC [21]: 2.5 µg/mL
Clc1ccc(COc2cccc(CNCc3cccnc3)c2)cc1	50 µM (≈ 16.9 µg/mL)	15.6 µM (≈ 5.29 µg/mL)	> 62.5 µM	–	5.60	31.3 µM (≈ 10.6 µg/mL)	MIC [11]: 31.3 µM (≈ 10.6 µg/mL); MIC [22]: 2.5 µg/mL
Clc1cccc(COc2ccccc2CNCc2cccnc2)c1	100 µM (≈ 33.9 µg/mL)	–	> 62.5 µM	> 62.5 µM	5.38	> 62.5 µM	MIC [23]: 7.9 µg/mL; MIC [24]: > 62.5 µM
